Test results taken from patent US20230026577A1, “Ophthalmic Pharmaceutical Compositions” (Vanda Pharmaceuticals Inc., priority 2019, published 2023).

Columns and labels:
[1] = Forced degradation studies of the compound of Formula I; assay type: physicochemical
From the text: The formation of the compound of Formula II is slowed and/or eliminated by inclusion of an "antioxidant system," as described herein, in the novel ophthalmic solution compositions described herein.

[2] = Solubility of the compound of Formula I in various materials (HPLC with UV detector); assay type: physicochemical
Description: The solubility of the compound of Formula I in various materials is determined.

Question: Which “Formation of the compound of Formula II” value [1] does the source give for CNc1nc(Nc2ccccc2)nc(OCC(F)(F)C(F)F)n1 [Formula I, N^2-methyl-N^4-phenyl-6-(2,2,3,3-tetrafluoropropoxy)-1,3,5-triazine-2,4-diamine] here?
Answer: The value was “not formed”.

Question: And the solubility ([2]; 0.2% poloxamer in water, aqueous with cosolvent or surfactant or cyclodextrin)?
Answer: Its solubility is 10 µg/mL.

Question: And the solubility ([2]; 0.5% polyoxyl 40 hydrogenated castor oil in water, aqueous with cosolvent or surfactant or cyclodextrin)?
Answer: The solubility was 70 µg/mL.

Question: What about the solubility ([2]; 1% polysorbate-80 in water, aqueous with cosolvent or surfactant or cyclodextrin) of the same molecule?
Answer: The solubility was 100 µg/mL.

Question: What about the solubility ([2]; 1.4% polyvinyl alcohol in water, aqueous with cosolvent or surfactant or cyclodextrin, 1.4% Poly Vinyl Alcohol in water) of the same molecule?
Answer: The solubility was 10 µg/mL.

Question: What about the solubility ([2]; 5% polyoxyl 35 castor oil in water, aqueous with cosolvent or surfactant or cyclodextrin) of the same molecule?
Answer: The solubility was 480 µg/mL.

Question: What about the solubility ([2]; 7% polyoxyl 40 stearate in water, aqueous with cosolvent or surfactant or cyclodextrin) of the same molecule?
Answer: The solubility was 620 µg/mL.

Question: What about the solubility ([2]; castor oil, oil or lipid) of the same molecule?
Answer: The solubility was 1090 µg/mL.

Question: And the solubility ([2]; glycerine, organic solvent or mixture)?
Answer: The solubility was 100 µg/mL.

Question: And the solubility ([2]; mineral oil, oil or lipid)?
Answer: The solubility was 40 µg/mL.

Question: What about the solubility ([2]; polyethylene glycol 400 (PEG-400), organic solvent or mixture) of the same molecule?
Answer: The solubility was 14500 µg/mL.

Question: And the solubility ([2]; propylene glycol (PG), organic solvent or mixture)?
Answer: The solubility was 4960 µg/mL.

Question: What about the solubility ([2]; purified water, water) of the same molecule?
Answer: The solubility was under 10 µg/mL.
